Legend:
adult rhesus monkey [1] = experiment: Spatial Delayed Response Task, spatial working memory; format: in vivo, rhesus macaque
adult rhesus monkey [2] = experiment: as above; format: in vivo, rhesus macaque; settings: for spatial working memory performance after repeat of the dose: 2.5 mg/kg on Day 1 and repeated on Day 5
Protocol: Experimental Overview: A group of both aged and non-aged animals was tested at a single dose of 2.5 mg/kg and their performance was followed daily for the first six days and on alternate days thereafter. This was to ascertain that we could repeat the effects we observed previously at the lowest possible dose. The effects of repeating this dose on Day 5, at the […] mark, were examined in order to determine whether (i) an immediate diminution in performance could still be seen the next day and (ii) whether the treatment could achieve a relatively consistent and enduring enhancement of performance in the following days. Since this dose was also capable of inducing a short term deficit in performance, the effects of single administrations at lower doses of 0.1 and 1.0 mg/kg were examined.
All animals were rhesus macaques except one stumptail (Macaca arctoides). Details of the animal demographics are given with each set of results. It was desired to have younger animals in each study, however a preponderance of aged animals were studied, and females outnumbered males by 2 or 3 to one. The Spatial Delayed Response Task is established as one of the most reliable, sensitive, and valuable models in which to test spatial working memory in primates. The Spatial Delayed Response Task is implemented rigidly in a completely systematic format that is uniform within and between animals and between studies. The Spatial Delayed Response Task is designed to normalize performance across animals such they all normally perform at ˜70% correct. The Spatial Delayed Response Task directly challenges the same spatial working memory circuitry in human and nonhuman primates, including dorsolateral prefrontal cortex, posterior parietal cortex and MD thalamus. The Spatial Delayed Response Task is sensitive to multiple neuropharmacological manipulations, whether administered locally or systemically, including dopaminergic, nicotinic, glutamatergic, and GABAergic agents. In this task one of several well locations are baited with food in view of the animal and then covered with identical plaques. An opaque shutter is then lowered for one of 5 variable delays, and then raised to allow the animal to make a response to one of the well locations to retrieve the food treat. Each animal is stabilized (65-75% correct ±≤2.5%) prior to commencing any administration by varying the number of wells and the lengths of the delay. Each testing session consists of 20 trials, 4 trials at each of 5 delays (distributed semi-randomly) ranging from 0, 1, 2, 3, and 4 N seconds, where N is incremented from 1 to 10 according to ability. The number of wells ranges for 2 to 7 and thus stability is achieved by gradually varying the number of wells and the N factor. Original baseline is achieved on initial training and is standardized over twenty sessions, thereafter an animal typically undergoes regular testing to ensure a reasonably stable baseline. An absolute minimum of three baseline sessions are required prior to any experimental condition. Animals are not food deprived but instead reward for correct responses with their most preferred treats (such as yoghurt raisins, gummy bears, and almonds) and then fed their normal ration of nutritional biscuits shortly after cognitive testing.
DPTQ was formulated as a suspension in 20% Captisol/PBS at pH8. Great care was taken to protect the compound in sonication and it was injected (at a volume of 0.2 ml/kg) via a 21G hypodermic needle (to avoid blockage) into the gluteus maximus within 2 hours of formulation (kept on ice). Vehicle was refrigerated in sterile injectable vials for up to one month. Animals were fully acclimated to all procedures prior to enrollment into any study. They were assigned on a readiness for study basis and where relevant, assignment was semirandom between vehicle and treatment arms. IM injections were performed in the animals' home cage 1 hour prior to cognitive testing. […]

**Q.** Which results are given for C[C@H]1c2cccc(CC(C)(C)O)c2C[C@H](CO)N1C(=O)Cc1c(Cl)cccc1Cl [DPTQ, 2-(2,6-dichlorophenyl)-1-((1S,3R)-5-(2-hydroxy-2-methylpropyl)-3-(hydroxymethyl)-1-methyl-3,4-dihydroisoquinolin-2 (1H)-yl) ethan-1-one]?
**A.** acute effect on spatial working memory performance (adult rhesus monkey [1]; acute doses of 2.5 to 10 mg/kg IM): trend in reducing spatial working memory performance; protection against ketamine induced cognitive deficits (adult rhesus monkey [1]; rhesus monkey, in vivo): little effect; diminution in spatial working memory performance (adult rhesus monkey [2]; 0.1 mg/kg): No sign of any diminution in performance; enhancement of spatial working memory performance (adult rhesus monkey [2]; 0.1 mg/kg, 2-week period): modest; spatial working memory performance versus baseline (adult rhesus monkey [2]; 0.1 mg/kg, Day 4): significant improvement over baseline; early deficit in spatial working memory (adult rhesus monkey [2]; 1.0 mg/kg): not evident; enhancement of spatial working memory performance (adult rhesus monkey [2]; 1.0 mg/kg, significance on Day 5): stronger than for the 0.1 mg/kg dose; effect on spatial working memory performance (adult rhesus monkey [2]; 2.5 mg/kg IM, Day 1): No immediate effect; impairment of spatial working memory performance (adult rhesus monkey [2]; 2.5 mg/kg IM, Day 3): ~10%; enhancement of spatial working memory performance (adult rhesus monkey [2]; 2.5 mg/kg IM, starting from Day 4, prolonged): ~10%; duration of sustained positive effect (adult rhesus monkey [2]; 2.5 mg/kg and above): ≥ 14 days; spatial working memory performance after repeat of the dose (adult rhesus monkey [2]; Day 6): distinctive drop in performance; spatial working memory performance after repeat of the dose (adult rhesus monkey [2]; after Day 6): enhancement for the subsequent week; difference between aged and non-aged animals (adult rhesus monkey [2]; 2.5 mg/kg, combined scores for Days 4, 5, and 6): No significant difference; spatial working memory performance (adult rhesus monkey [2]; 24 to 48 hours post injection): substantially impaired; spatial working memory performance (adult rhesus monkey [2]; 96 to 120 hours post injection): considerably enhanced

Source: patent US12642794B2, “Dose regimens for use of LY3154207 in the treatment of dopaminergic CNS disorders” (Eli Lilly and Company, priority 2018, dated 2026)
